From article PMC6001238, “Iterative Chemical Engineering of Vancomycin Leads to Novel Vancomycin Analogs With a High in Vitro Therapeutic Index” (Frontiers in Microbiology, 2018)
In brackets after ≈: the same amount, converted by molar mass.

Legend:
S. aureus VRSA = test: MIC, broth microdilution, vancomycin-resistant S. aureus (VRSA); type: cell-based, Staphylococcus aureus; details: for MIC: Staphylococcus aureus VRSA, read-out: MIC; for MIC-fold improvement vs. vancomycin: VRSA, ratio of MIC of vancomycin and MIC of analogue
Outline: (§1)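 Susceptibility was scored by broth microdilution (CLSI). In one instance each vancomycin analog or control antibiotic was tested in the presence of vancomycin, 10 μM final, and ultrapure water plus non-inoculated broth were included as controls.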

[1] = tested on: human cervix carcinoma (HeLa) cells; test: Cytostatic activity, HeLa cell proliferation; type: cell-based; details: mean ± SD of three experiments; highest concentration tested 250 µM; 4 days; read-out: Toxicity (IC50) HeLa
Outline: (§2)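 Suspensions (300,000–500,000 cells/mL) combined with equal volumes of diluted compound; 37°C; L1210 2 d / CEM 3 d / HeLa 4 d; counted by Coulter counter; IC50 vs untreated wells.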

MRSA KS2 = test: MIC, broth microdilution, MRSA KS2; type: cell-based, Staphylococcus aureus; details: for MIC-fold improvement vs. vancomycin: MRSA KS2, ratio of MIC of vancomycin and MIC of analogue; for MIC: Staphylococcus aureus MRSA KS2, read-out: MIC
Outline: as §1

E. faecalis VSE 1 = test: MIC, broth microdilution, vancomycin-sensitive E. faecalis (VSE 1); type: cell-based, Enterococcus faecalis; details: for MIC: Enterococcus faecalis VSE 1 (vancomycin-sensitive), read-out: MIC; for MIC-fold improvement vs. vancomycin: VSE 1, ratio of MIC of vancomycin and MIC of analogue
Outline: as §1

MRSA KS89 = test: MIC, broth microdilution, MRSA KS89; type: cell-based, Staphylococcus aureus; details: for MIC-fold improvement vs. vancomycin: MRSA KS8, ratio of MIC of vancomycin and MIC of analogue; for MIC: Staphylococcus aureus MRSA KS8, read-out: MIC
Outline: as §1

E. faecalis VRE 29 = test: MIC, broth microdilution, vancomycin-resistant E. faecalis VRE 29 (VanA); type: cell-based, Enterococcus faecalis; details: for MIC: Enterococcus faecalis VRE 29 (vancomycin-resistant), read-out: MIC; for MIC-fold improvement vs. vancomycin: VRE 29, ratio of MIC of vancomycin and MIC of analogue
Outline: as §1

S. aureus VISA/HIP5827 = test: MIC, broth microdilution, vancomycin-intermediate S. aureus VISA HIP5827; type: cell-based, Staphylococcus aureus; details: for MIC: Staphylococcus aureus VISA/HIP5827, read-out: MIC; for MIC-fold improvement vs. vancomycin: VISA/HIP5827, ratio of MIC of vancomycin and MIC of analogue
Outline: as §1

E. faecalis VRE 37 = test: MIC, broth microdilution, vancomycin-resistant E. faecalis VRE 37 (VanA); type: cell-based, Enterococcus faecalis; details: for MIC: Enterococcus faecalis VRE 37 (vancomycin-resistant), read-out: MIC; for MIC-fold improvement vs. vancomycin: VRE 37, ratio of MIC of vancomycin and MIC of analogue
Outline: as §1

[2] = tested on: L1210, CEM and HeLa cell lines; test: Cytostatic activity, average or summary over L1210, CEM and HeLa; type: cell-based; details: average of L1210, CEM and HeLa; read-out: Toxicity (IC50) Average
Outline: as §2

MRSA KS6 = test: MIC, broth microdilution, MRSA KS6; type: cell-based, Staphylococcus aureus; details: for MIC-fold improvement vs. vancomycin: MRSA KS6, ratio of MIC of vancomycin and MIC of analogue; for MIC: Staphylococcus aureus MRSA KS6, read-out: MIC
Outline: as §1

[3] = tested on: human T-lymphocyte (CEM) cells; test: Cytostatic activity, CEM cell proliferation; type: cell-based; details: mean ± SD of three experiments; highest concentration tested 250 µM; 3 days; read-out: Toxicity (IC50) CEM
Outline: as §2

E. faecalis VRE 53 = test: MIC, broth microdilution, vancomycin-resistant E. faecalis VRE 53 (VanA); type: cell-based, Enterococcus faecalis; details: for MIC: Enterococcus faecalis VRE 53 (vancomycin-resistant), read-out: MIC; for MIC-fold improvement vs. vancomycin: VRE 53, ratio of MIC of vancomycin and MIC of analogue
Outline: as §1

[4] = tested on: Murine leukemia (L1210) cells; test: Cytostatic activity, L1210 cell proliferation; type: cell-based; details: mean ± SD of three experiments; highest concentration tested 250 µM; 2 days; read-out: Toxicity (IC50) L1210
Outline: as §2

[5] = tested on: S. aureus VSSA (ATCC 6538); test: MIC, broth microdilution, vancomycin-sensitive S. aureus (VSSA/MSSA, ATCC 6538); type: cell-based, Staphylococcus aureus; details: for MIC: Staphylococcus aureus VSSA, read-out: MIC; for MIC-fold improvement vs. vancomycin: VSSA, ratio of MIC of vancomycin and MIC of analogue
Outline: as §1

MRSA KS1 = test: MIC, broth microdilution, MRSA KS1; type: cell-based, Staphylococcus aureus; details: for MIC-fold improvement vs. vancomycin: MRSA KS1, ratio of MIC of vancomycin and MIC of analogue; for MIC: Staphylococcus aureus MRSA KS1, read-out: MIC
Outline: as §1

E. faecalis VRE 6 = test: MIC, broth microdilution, vancomycin-resistant E. faecalis VRE 6 (VanA); type: cell-based, Enterococcus faecalis; details: for MIC: Enterococcus faecalis VRE 6 (vancomycin-resistant), read-out: MIC; for MIC-fold improvement vs. vancomycin: VRE 6, ratio of MIC of vancomycin and MIC of analogue
Outline: as §1

| MIC (S. aureus VRSA) [µM] | MIC-fold improvement vs. vancomycin (S. aureus VRSA) | MIC-fold improvement vs. vancomycin (MRSA KS2) | MIC (MRSA KS2) [µM] | MIC (E. faecalis VSE 1) [µM] | MIC-fold improvement vs. vancomycin (E. faecalis VSE 1) | MIC-fold improvement vs. vancomycin (MRSA KS89) | MIC (MRSA KS89) [µM] | MIC (E. faecalis VRE 29) [µM] | MIC-fold improvement vs. vancomycin (E. faecalis VRE 29) | MIC (S. aureus VISA/HIP5827) [µM] | MIC-fold improvement vs. vancomycin (S. aureus VISA/HIP5827) | MIC (E. faecalis VRE 37) [µM] | MIC-fold improvement vs. vancomycin (E. faecalis VRE 37) | MIC-fold improvement vs. vancomycin (MRSA KS6) | MIC (MRSA KS6) [µM] | MIC (E. faecalis VRE 53) [µM] | SMILES | IC50 [1] [µM] | IC50 [2] [µM] | IC50 [3] [µM] | further results |
| --- | --- | --- | --- | --- | --- | --- | --- | --- | --- | --- | --- | --- | --- | --- | --- | --- | --- | --- | --- | --- | --- |
| 12.5 (≈ 20.1 µg/mL) | 8 | 1 | 0.78 (≈ 1.26 µg/mL) | 0.39 (≈ 0.628 µg/mL) | 4 | 2 | 0.39 (≈ 0.628 µg/mL) | 6.25 (≈ 10.1 µg/mL) | 32 | 0.78 (≈ 1.26 µg/mL) | 8 | 12.5 (≈ 20.1 µg/mL) | 64 | 2 | 0.39 (≈ 0.628 µg/mL) | 12.5 (≈ 20.1 µg/mL) | CN[C@H](CC(C)C)C(=O)N[C@H]1C(=O)N[C@@H](CC(N)=O)C(=O)N[C@H]2C(=O)N[C@H]3C(=O)N[C@H](C(=O)N[C@H](C(=O)NCC(=O)Nc4cc(C)cc(C)c4)c4cc(O)cc(O)c4-c4cc3ccc4O)[C@H](O)c3ccc(c(Cl)c3)Oc3cc2cc(c3O[C@@H]2O[C@H](CO)[C@@H](O)[C@H](O)[C@H]2O[C@H]2C[C@](C)(N)[C@H](O)[C@H](C)O2)Oc2ccc(cc2Cl)[C@H]1O [Vanc-11] | 87 ± 9 | 178 | 196 ± 15 | MIC-fold improvement vs. vancomycin (E. faecalis VRE 53): 32; IC50 [4]: > 250 µM; MIC [5]: 0.78 µM (≈ 1.26 µg/mL); MIC-fold improvement vs. vancomycin [5]: 1; MIC-fold improvement vs. vancomycin (MRSA KS1): 1; MIC (MRSA KS1): 0.78 µM (≈ 1.26 µg/mL); MIC (E. faecalis VRE 6): 3.13 µM (≈ 5.04 µg/mL); MIC-fold improvement vs. vancomycin (E. faecalis VRE 6): 64 |
| 6.25 (≈ 10.2 µg/mL) | 16 | 2 | 0.39 (≈ 0.634 µg/mL) | 0.78 (≈ 1.27 µg/mL) | 2 | 1 | 0.78 (≈ 1.27 µg/mL) | 25 (≈ 40.7 µg/mL) | 16 | 1.56 (≈ 2.54 µg/mL) | 4 | 25 (≈ 40.7 µg/mL) | 16 | 1 | 0.78 (≈ 1.27 µg/mL) | 25 (≈ 40.7 µg/mL) | CN[C@H](CC(C)C)C(=O)N[C@H]1C(=O)N[C@@H](CC(N)=O)C(=O)N[C@H]2C(=O)N[C@H]3C(=O)N[C@H](C(=O)N[C@H](C(=O)NCC(=O)Nc4ccc([N+](=O)[O-])cc4)c4cc(O)cc(O)c4-c4cc3ccc4O)[C@H](O)c3ccc(c(Cl)c3)Oc3cc2cc(c3O[C@@H]2O[C@H](CO)[C@@H](O)[C@H](O)[C@H]2O[C@H]2C[C@](C)(N)[C@H](O)[C@H](C)O2)Oc2ccc(cc2Cl)[C@H]1O [Vanc-67] | 52 ± 19 | 156 | 165 ± 32 | MIC-fold improvement vs. vancomycin (E. faecalis VRE 53): 16; IC50 [4]: ≥ 250 µM; MIC [5]: 0.78 µM (≈ 1.27 µg/mL); MIC-fold improvement vs. vancomycin [5]: 1; MIC-fold improvement vs. vancomycin (MRSA KS1): 1; MIC (MRSA KS1): 0.78 µM (≈ 1.27 µg/mL); MIC (E. faecalis VRE 6): 12.5 µM (≈ 20.3 µg/mL); MIC-fold improvement vs. vancomycin (E. faecalis VRE 6): 16 |
